Data on 20 compounds can be found in US9458153B2, “Dihydroquinolizinones for the treatment and prophylaxis of hepatitis B virus infection” (Hoffmann-La Roche Inc., priority 2014, dated 2016).

The test system of assay [1] is HBsAg. Put plainly: HBsAg assay (chemiluminescence immunoassay of secreted HBsAg in HepG2.2.15 culture supernatant). The assay is classed as cell-based, HBV. The conditions noted are these: HepG2.2.15 cells, CLIA kit. In short, it runs like this: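 IC50 came from dose-response curves of HBsAg in culture supernatant, measured semi-quantitatively by chemiluminescent immunoassay. The HBV-producing HepG2.2.15 line was dosed in duplicate with a three-fold compound dilution series, with DMSO at 1% final and DMSO alone as the no-drug control.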

For assay [2], the system named is HBV DNA. The assay is described as follows: HBV DNA assay (real-time qPCR/TaqMan of extracellular HBV DNA copy number, HepG2.2.15 cells). The assay is classed as cell-based. As to conditions: Anti HBV DNA production activity in HepG2.2.15 cells, supernatant collected six days after initial administration. On the procedure:
HepG2.2.15 cells (Acs et al. Proc Natl Acad Sci USA, 84, (1987), 4641-4), a constitutively HBV-expressing cell line were cultured in DMEM+Glutamax-I medium (Invitrogen, Carlsbad, Calif., USA), supplemented with 10% fetal bovine serum (Invitrogen) and G418 (Invitrogen) at a final concentration of 200 mg/L and maintained in 5% CO2 at 37° C.
The assay employs real-time qPCR (TaqMan) to directly measure extracellular HBV DNA copy number. HepG2.2.15 cells were plated in 96-well microtiter plates. Only the interior wells were utilized to reduce “edge effects” observed during cell culture, the exterior wells were filled with complete medium to help minimize sample evaporation. On the following day, the HepG2.2.15 cells were washed and the medium was replaced with complete medium containing various concentrations of a test compound in triplicate. 3TC was used as the positive control, while media alone was added to cells as a negative control (virus control, VC). Three days later, the culture medium was replaced with fresh medium containing the appropriately diluted drug. Six days following the initial administration of the test compound, the cell culture supernatant was collected, treated with pronase and then used in a real-time qPCR/TaqMan assay to determine HBV DNA copy numbers. Antiviral activity was calculated from the reduction in HBV DNA levels (IC50).
The compounds of the present invention were tested for their capacity to inhibit HBV DNA as described herein.
(In general: Real-time PCR tracks product formation cycle by cycle.)

Where [3] appears, read: HBsAg secretion reduced by 50% vs no drug control.
Where [4] appears, read: Hepatitis B virus, HepG2.2.15, 144 h.
Setting [5] is: Hepatitis B virus, HepG2.2.15, HBsAg secretion reduced by 50% vs no drug control.

The structures appear in SMILES notation. A value given as a limit tells only on which side of the number the result lay.

Take `CCC1Cc2cc(OCC(C)C)c(OC)cc2-c2cc(=O)c(C(=O)O)cn21` (stereo not shown) [Example 33, 6-ethyl-9-isobutoxy-10-methoxy-2-oxo-6,7-dihydrobenzo[a]quinolizine-3-carboxylic acid]: the results for the IC50 in assay [1] (setting [3]) and in assay [2] (setting [4]) were 8 nM and 3 nM, respectively.

In the case of `CCCOc1cc2c(cc1OC)-c1cc(=O)c(C(=O)O)cn1C(CC)C2` (single isomer, unassigned; (+)) [Example 79, (+)-6-ethyl-10-methoxy-2-oxo-9-propoxyl-6,7-dihydrobenzo[a]quinolizine-3-carboxylic acid], the IC50 was determined as 4 nM in assay [1] (setting [3]) and 2 nM in assay [2] (setting [4]).

`CCOc1cc2c(cc1OCC)-c1cc(=O)c(C(=O)O)cn1C(CC)C2` (stereo not shown) [Example 5, 9,10-diethoxy-6-ethyl-2-oxo-6,7-dihydrobenzo[a]quinolizine-3-carboxylic acid]: the IC50 amounted to 18 nM in assay [1] (setting [3]) and 9 nM in assay [2] (setting [4]).

`COCCCOc1cc2c(cc1Cl)-c1cc(=O)c(C(=O)O)cn1C(C(C)C)C2` (single isomer, unassigned; (+)) [Example 121, (+)-10-chloro-6-isopropyl-9-(3-methoxypropoxy)-2-oxo-6,7-dihydrobenzo[a]quinolizine-3-carboxylic acid]: the figures for the IC50 in assay [1] (setting [3]) and in assay [2] (setting [4]) were 2 nM and below 0.1 nM, respectively.

In the case of `CCC1Cc2cc(OCC3CC3)c(OC)cc2-c2cc(=O)c(C(=O)O)cn21` (stereo not shown) [Example 30, 9-(cyclopropylmethoxy)-6-ethyl-10-methoxy-2-oxo-6,7-dihydrobenzo[a]quinolizine-3-carboxylic acid], the results for the IC50 in assay [1] (setting [3]) and in assay [2] (setting [4]) were 24 nM and 2 nM, respectively.

Consider `COc1cc2c(cc1OC)-c1cc(=O)c(C(=O)O)cn1C(C(C)C)C2` (single isomer, unassigned; (+)) [Example 99, (+)-6-isopropyl-9,10-dimethoxy-2-oxo-6,7-dihydrobenzo[a]quinolizine-3-carboxylic acid], for which the 50% inhibitory concentration (IC50) came to 16 nM in assay [1] (setting [3]) and 3 nM in assay [2] (setting [4]).

In assay [2], `CCOc1cc2c(cc1OCC)-c1cc(=O)c(C(=O)O)cn1C(CC)C2` (single isomer, unassigned; (+)) [Example 6, (+)-9,10-diethoxy-6-ethyl-2-oxo-6,7-dihydrobenzo[a]quinolizine-3-carboxylic acid] gave an IC50 of 6 nM.

Regarding `COCCOc1cc2c(cc1Cl)-c1cc(=O)c(C(=O)O)cn1C(C(C)C)C2` (single isomer, unassigned; (+)) [Example 108, (+)-10-chloro-6-isopropyl-9-(2-methoxyethoxy)-2-oxo-6,7-dihydrobenzo[a]quinolizine-3-carboxylic acid], the IC50 in assay [1] (setting [3]) turned out to be 3 nM; in assay [2] (setting [4]), 2 nM.

Take `CCOc1cc2c(cc1OCC)-c1cc(=O)c(C(=O)O)cn1CC2` [Example 76, 9,10-diethoxy-2-oxo-6,7-dihydrobenzo[a]quinolizine-3-carboxylic acid]: the IC50 stood at 350 nM in assay [1] (setting [5]) and 130 nM in assay [2] (setting [4]).

As for `COCCCOc1cc2c(cc1OC)-c1cc(=O)c(C(=O)O)cn1C(C(C)C)C2` (single isomer, unassigned; (+)) [Example 124, (+)-10-methoxy-6-isopropyl-9-(3-methoxypropoxy)-2-oxo-6,7-dihydrobenzo[a]quinolizine-3-carboxylic acid], the IC50 was 2 nM in assay [1] (setting [3]) and below 0.1 nM in assay [2] (setting [4]).

Consider `COCCCOc1cc2c(cc1Cl)-c1cc(=O)c(C(=O)O)cn1C(C1(C)CC1)C2` (single isomer, unassigned; (+)) [Example 206, (+)-10-chloro-9-(3-methoxypropoxy)-6-(1-methylcyclopropyl)-2-oxo-6,7-dihydrobenzo[a]quinolizine-3-carboxylic acid], for which the 50% inhibitory concentration (IC50) came out at 1 nM in assay [1] (setting [3]) and 0.1 nM in assay [2] (setting [4]).

`CCOc1cc2c(cc1Cl)-c1cc(=O)c(C(=O)O)cn1C(CC)C2` (single isomer, unassigned; (-)) [Example 119, (−)-10-chloro-9-ethoxy-6-ethyl-2-oxo-6,7-dihydrobenzo[a]quinolizine-3-carboxylic acid]: the IC50 in assay [1] (setting [3]) stood at 330 nM; in assay [2] (setting [4]), 2 nM.

Regarding `CCC1Cc2cc(OCC(F)(F)F)c(OC)cc2-c2cc(=O)c(C(=O)O)cn21` (single isomer, unassigned; (+)) [Example 11, (+)-6-ethyl-10-methoxy-2-oxo-9-(2,2,2-trifluoroethoxy)-6,7-dihydrobenzo[a]quinolizine-3-carboxylic acid], the IC50 in assay [1] (setting [3]) amounted to 17 nM; in assay [2] (setting [4]), 4 nM.

`COc1cc2c(cc1OCCN1CCOCC1)CC(C(C)(C)C)n1cc(C(=O)O)c(=O)cc1-2` (single isomer, unassigned; (+)) [Example 190, (+)-6-tert-butyl-10-methoxy-9-(2-morpholinoethoxy)-2-oxo-6,7-dihydrobenzo[a]quinolizine-3-carboxylic acid]: the IC50 in assay [1] (setting [3]) is 6 nM; in assay [2] (setting [4]), 2 nM.

As for `COCCCOc1cc2c(cc1OC)-c1cc(=O)c(C(=O)O)cn1C(C1(C)CC1)C2` (single isomer, unassigned; (+)) [Example 209, (+)-10-methoxy-9-(3-methoxypropoxy)-6-(1-methylcyclopropyl)-2-oxo-6,7-dihydrobenzo[a]quinolizine-3-carboxylic acid], the IC50 in assay [1] (setting [3]) was determined as 1 nM; in assay [2] (setting [4]) it was 0.3 nM.

`CCC1Cc2cc(OCC(=O)N3CCCC3)c(OC)cc2-c2cc(=O)c(C(=O)O)cn21` (stereo not shown) [Example 18, 6-ethyl-10-methoxy-2-oxo-9-(2-oxo-2-pyrrolidin-1-yl-ethoxy)-6,7-dihydrobenzo[a]quinolizine-3-carboxylic acid] came in with an IC50 in assay [1] (setting [5]) of 9470 nM.

With `CCC1Cc2cc(OC)c(C3CC3)cc2-c2cc(=O)c(C(=O)O)cn21` (single isomer, unassigned; (+)) [Example 90, (+)-10-cyclopropyl-6-ethyl-9-methoxy-2-oxo-6,7-dihydrobenzo[a]quinolizine-3-carboxylic acid], the IC50 in assay [1] (setting [3]) is 10 nM.

Regarding `CC[C@@H]1Cc2cc(OC)c(OC)cc2-c2cc(=O)c(C(=O)O)cn21` [Example 71, (6R)-(+)-6-ethyl-9,10-dimethoxy-2-oxo-6,7-dihydrobenzo[a]quinolizine-3-carboxylic acid], it took 37 nM to reach half-maximal inhibition in assay [1] (setting [5]) (IC50).

In turn, `COCCOc1cc2c(cc1OC)-c1cc(=O)c(C(=O)O)cn1C(C1(C)CC1)C2` (single isomer, unassigned; (+)) [Example 135, (+)-10-methoxy-9-(2-methoxyethoxy)-6-(1-methylcyclopropyl)-2-oxo-6,7-dihydrobenzo[a]quinolizine-3-carboxylic acid] gave an IC50 in assay [1] (setting [3]) of 4 nM.

`CCCOc1cc2c(cc1OC)-c1cc(=O)c(C(=O)O)cn1C(CC)C2` (stereo not shown) [Example 78, 6-ethyl-10-methoxy-2-oxo-9-propoxy-6,7-dihydrobenzo[a]quinolizine-3-carboxylic acid] showed an IC50 in assay [2] of 4 nM.

In general, IC50 refers to the concentration needed to halve the response being measured. Low readings indicate higher potency, high ones lower potency.
